Strand notation (5' to 3'): a small letter for the sugar, then the base; units joined by * are phosphorothioate-linked, units joined directly phosphodiester-linked; [ ] holds rarer units or linkages, { } end groups; capitals alone tell only the bases. e = 2'-O-(2-methoxyethyl) (MOE); [5mC] = 5-methylcytosine; d = 2'-deoxy (DNA)
System: rat RANKL mRNA
Assay: Antisense inhibition of rat RANKL mRNA levels in UMR-106 cells, quantitative real-time PCR (Table 3)
Format: cell-based
Design: concentration or dose not given beside the values
Settings: averages from three experiments
Protocol: Cells were seeded onto 24-well plates (Falcon-353047) at a density of […] for use in antisense oligonucleotide transfection.
Cells are treated and data are obtained in triplicate. […] Cells were harvested 16-24 hours after oligonucleotide treatment.
PCR reagents were obtained from Invitrogen Corporation, (Carlsbad, Calif.).
Probes and primers to rat RANKL were designed to hybridize to a rat RANKL sequence, using published sequence information (GenBank accession number NM_057149.1, incorporated herein as SEQ ID NO:18). For rat RANKL the PCR primers were: • forward primer: […] (SEQ ID NO:19) • reverse primer: […] (SEQ ID NO: 20) and the • PCR probe was: FAM-[…]-TAMRA (SEQ ID NO: 21) where FAM is the fluorescent reporter dye and TAMRA is the quencher dye. For rat GAPDH the PCR primers were: • forward primer: […](SEQ ID NO:22) • reverse primer: […](SEQ ID NO:23) and the • PCR probe was: 5′ JOE-[…]-TAMRA 3′ (SEQ ID NO: 24) where JOE is the fluorescent reporter dye and TAMRA is the quencher dye.
In accordance with the present invention, a second series of antisense compounds was designed to target different regions of the rat RANKL RNA, using published sequences (GenBank accession number NM_057149.1, incorporated herein as SEQ ID NO: 18, and GenBank accession number AF425669.1, incorporated herein as SEQ ID NO: 200). […] All cytidine residues are 5-methylcytidines. […] If present, “N.D.” indicates “no data”.

Substance	% INHIB (inhibition of rat RANKL mRNA levels) [%]
180806 (antisense eG*eG*e[5mC]*eA*eG*d[5mC]*dA*dT*dT*dG*dA*dT*dG*dG*dT*eG*eA*eG*eG*eT) [compound 180806]	9
286586 (antisense eG*eG*eT*eA*e[5mC]*dT*dT*dG*d[5mC]*d[5mC]*dG*dT*dA*dG*dT*e[5mC]*eT*e[5mC]*eG*eG) [compound 286586]	63
286587 (antisense eG*e[5mC]*eG*e[5mC]*eA*dG*dG*dT*dA*d[5mC]*dT*dT*dG*d[5mC]*d[5mC]*eG*eT*eA*eG*eT) [compound 286587]	50
286588 (antisense eG*e[5mC]*eG*eA*eT*dG*d[5mC]*dT*dG*d[5mC]*dA*dG*dA*d[5mC]*d[5mC]*eA*e[5mC]*e[5mC]*eT*eG) [compound 286588]	63
286589 (antisense eA*e[5mC]*eA*eG*eA*dG*d[5mC]*dG*dA*dT*dG*d[5mC]*dT*dG*d[5mC]*eA*eG*eA*e[5mC]*e[5mC]) [compound 286589]	49
286590 (antisense e[5mC]*eA*eG*eG*eA*dA*d[5mC]*dA*dG*dA*dG*d[5mC]*dG*dA*dT*eG*e[5mC]*eT*eG*e[5mC]) [compound 286590]	47
286591 (antisense eA*eA*eG*eT*eA*d[5mC]*dA*dG*dG*dA*dA*d[5mC]*dA*dG*dA*eG*e[5mC]*eG*eA*eT) [compound 286591]	17
286592 (antisense e[5mC]*eT*e[5mC]*eG*eA*dA*dA*dG*dT*dA*d[5mC]*dA*dG*dG*dA*eA*e[5mC]*eA*eG*eA) [compound 286592]	16
286593 (antisense e[5mC]*eT*eG*e[5mC]*eG*d[5mC]*dT*d[5mC]*dG*dA*dA*dA*dG*dT*dA*e[5mC]*eA*eG*eG*eA) [compound 286593]	49
286594 (antisense eT*e[5mC]*e[5mC]*eA*eT*d[5mC]*dT*dG*d[5mC]*dG*d[5mC]*dT*d[5mC]*dG*dA*eA*eA*eG*eT*eA) [compound 286594]	35
286595 (antisense eT*eA*eG*eG*eA*dT*d[5mC]*d[5mC]*dA*dT*d[5mC]*dT*dG*d[5mC]*dG*e[5mC]*eT*e[5mC]*eG*eA) [compound 286595]	46
286596 (antisense eT*e[5mC]*eT*eG*eT*dT*dA*dG*dG*dA*dT*d[5mC]*d[5mC]*dA*dT*e[5mC]*eT*eG*e[5mC]*eG) [compound 286596]	58
286597 (antisense eG*eA*eT*eA*eT*dT*d[5mC]*dT*dG*dT*dT*dA*dG*dG*dA*eT*e[5mC]*e[5mC]*eA*eT) [compound 286597]	57
286598 (antisense e[5mC]*eT*eT*e[5mC]*eT*dG*dA*dT*dA*dT*dT*d[5mC]*dT*dG*dT*eT*eA*eG*eG*eA) [compound 286598]	6
286599 (antisense e[5mC]*eG*e[5mC]*eG*eT*dG*d[5mC]*dT*dG*dT*d[5mC]*dT*dT*d[5mC]*dT*eG*eA*eT*eA*eT) [compound 286599]	46
286600 (antisense eT*eT*e[5mC]*eT*eG*dT*dA*dG*dA*dA*dG*d[5mC]*dA*dG*d[5mC]*eG*e[5mC]*eG*eT*eG) [compound 286600]	13
286601 (antisense eT*e[5mC]*eA*e[5mC]*eG*dG*dA*dG*dT*d[5mC]*dT*d[5mC]*dA*dG*dA*eA*eT*eT*e[5mC]*eT) [compound 286601]	63
286602 (antisense eA*eA*e[5mC]*e[5mC]*eT*dG*dT*dA*dT*dT*dT*dT*d[5mC]*dA*d[5mC]*eG*eG*eA*eG*eT) [compound 286602]	48
286603 (antisense eA*eG*eT*e[5mC]*eG*dA*dG*dT*d[5mC]*d[5mC]*dT*dG*d[5mC]*dA*dA*eA*e[5mC]*e[5mC]*eT*eG) [compound 286603]	59
286604 (antisense eT*e[5mC]*e[5mC]*eA*eG*dA*dG*dT*d[5mC]*dG*dA*dG*dT*d[5mC]*d[5mC]*eT*eG*e[5mC]*eA*eA) [compound 286604]	68
286605 (antisense eT*eT*eT*eG*e[5mC]*dA*d[5mC]*dG*dG*d[5mC]*d[5mC]*d[5mC]*d[5mC]*dT*dT*eG*eA*eA*eA*eG) [compound 286605]	53

Substance	% INHIB (inhibition of rat RANKL mRNA levels) [%]
286606 (antisense eT*eG*eT*eA*eA*dT*dT*d[5mC]*d[5mC]*d[5mC]*dT*dT*dT*dG*d[5mC]*eA*e[5mC]*eG*eG*e[5mC]) [compound 286606]	37
286607 (antisense eT*eG*eT*eG*eG*d[5mC]*d[5mC]*d[5mC]*d[5mC]*dA*d[5mC]*dA*dA*dT*dG*eT*eG*eT*eT*eG) [compound 286607]	48
286608 (antisense e[5mC]*eA*eA*eA*e[5mC]*dG*dG*d[5mC]*dT*dG*dA*dG*d[5mC]*d[5mC]*dT*e[5mC]*eA*eG*eG*e[5mC]) [compound 286608]	25
286609 (antisense eG*e[5mC]*eA*eG*e[5mC]*dA*dT*dT*dG*dA*dT*dG*dG*dT*dG*eA*eG*eG*eT*eG) [compound 286609]	17
286610 (antisense eA*e[5mC]*eT*eT*eT*dA*dT*dG*dG*dG*dA*dA*d[5mC]*d[5mC]*d[5mC]*eG*eA*eT*eG*eG) [compound 286610]	34
286611 (antisense eA*eG*eA*eG*eG*dA*d[5mC]*dA*dG*dA*d[5mC]*dT*dG*dA*d[5mC]*eT*eT*eT*eA*eT) [compound 286611]	47
286612 (antisense eT*eG*eG*eT*eA*d[5mC]*d[5mC]*dA*dA*dG*dA*dG*dG*dA*d[5mC]*eA*eG*eA*e[5mC]*eT) [compound 286612]	5
286613 (antisense eG*eA*eT*e[5mC]*eA*dT*dG*dG*dT*dA*d[5mC]*d[5mC]*dA*dA*dG*eA*eG*eG*eA*e[5mC]) [compound 286613]	39
286614 (antisense eA*eT*e[5mC]*eT*eT*dG*dG*d[5mC]*d[5mC]*d[5mC]*dA*dG*d[5mC]*d[5mC]*dT*e[5mC]*eG*eA*eT*e[5mC]) [compound 286614]	41
286615 (antisense eT*eA*eG*eA*eG*dA*dT*d[5mC]*dT*dT*dG*dG*d[5mC]*d[5mC]*d[5mC]*eA*eG*e[5mC]*e[5mC]*eT) [compound 286615]	45
286616 (antisense e[5mC]*eA*eT*eG*eT*dT*dA*dG*dA*dG*dA*dT*d[5mC]*dT*dT*eG*eG*e[5mC]*e[5mC]*e[5mC]) [compound 286616]	31
286617 (antisense eA*eG*eT*eT*eT*dT*d[5mC]*d[5mC]*dG*dT*dT*dG*d[5mC]*dT*dT*eA*eA*e[5mC]*eG*eT) [compound 286617]	52
286618 (antisense eA*e[5mC]*e[5mC]*e[5mC]*eT*dT*dA*dG*dT*dT*dT*dT*d[5mC]*d[5mC]*dG*eT*eT*eG*e[5mC]*eT) [compound 286618]	57
286619 (antisense eG*eG*eT*eT*eA*dA*d[5mC]*d[5mC]*d[5mC]*dT*dT*dA*dG*dT*dT*eT*eT*e[5mC]*e[5mC]*eG) [compound 286619]	61
286620 (antisense eA*eT*e[5mC]*eT*eT*dG*dG*dT*dT*dA*dA*d[5mC]*d[5mC]*d[5mC]*dT*eT*eA*eG*eT*eT) [compound 286620]	48
286621 (antisense eA*eA*eG*e[5mC]*e[5mC]*dA*dT*d[5mC]*dT*dT*dG*dG*dT*dT*dA*eA*e[5mC]*e[5mC]*e[5mC]*eT) [compound 286621]	33
286622 (antisense eA*eA*eT*eA*eG*dA*dA*dG*d[5mC]*d[5mC]*dA*dT*d[5mC]*dT*dT*eG*eG*eT*eT*eA) [compound 286622]	12
286623 (antisense eT*eA*eA*eT*eA*dG*dA*dA*dG*d[5mC]*d[5mC]*dA*dT*d[5mC]*dT*eT*eG*eG*eT*eT) [compound 286623]	16
286624 (antisense e[5mC]*eA*eG*eG*eT*dA*dA*dT*dA*dG*dA*dA*dG*d[5mC]*d[5mC]*eA*eT*e[5mC]*eT*eT) [compound 286624]	22
286625 (antisense eG*e[5mC]*eG*eT*eA*d[5mC]*dA*dG*dG*dT*dA*dA*dT*dA*dG*eA*eA*eG*e[5mC]*e[5mC]) [compound 286625]	50
286626 (antisense eT*eG*eT*eT*eG*dG*d[5mC]*dG*dT*dA*d[5mC]*dA*dG*dG*dT*eA*eA*eT*eA*eG) [compound 286626]	41
